Laboratory results from PMC12040169 (PLOS Biology, 2025).

Experiment: in vitro
Settings: human, hela cells, % viability

Structure (SMILES)	viability at 28.5 h, 10 µM
O=C(c1ccc(F)cc1)[C@H]1CCCN(C(=O)c2n[nH]c3c2CCC3)C1 [CBK282322]	86.7%
O=C(NCc1nnc(-c2cccs2)o1)C1(c2ccc(F)cc2)CC1 [CBK284638]	74.4%
O=C1c2ccccc2S(=O)(=O)N1CC(O)Cn1c2ccc(Br)cc2c2cc(Br)ccc21 (stereo not shown) [CBK262347]	112%
O=C(CCCn1ccnc1)NCC1(c2cccc(F)c2)CCCC1 [CBK281500]	88.5%
COC(=O)[C@H]1O[C@H](c2ccccc2)[C@@H]2C(=O)N(C)C(=O)[C@@H]21 [CBK009058]	87.6%
Cc1cc(Cl)cc(C)c1NS(=O)(=O)c1ccc(N2CCCNCC2)c2ccccc12 [CBK004433C]	97.2%
Cc1cc(C)cc(NC(=O)N2CCN(c3nccnc3NS(C)(=O)=O)CC2)c1 [CBK048877]	105%
OCc1ccc(OCCCOc2cccc3cccnc23)cc1 [CBK269674]	85.8%
Clc1ccc(Nc2cncc(-c3cccs3)n2)cc1 [CBK065805]	107%
CN1C[C@@H](NC(=O)c2cccnc2)C[C@H]1c1nc(-c2cccnc2)no1 [CBK288857]	86.7%
Cc1ccc(Cl)cc1NC(=O)CCn1cnc2ccccc2c1=O [CBK270103]	95.1%
O=C(CCn1ccc2ccc(F)cc21)NC[C@H]1CC[C@H](C(=O)O)CC1 [CBK286666]	86.2%
O=c1n(CC2CCCCC2)c2ccccc2n1S(=O)(=O)c1ccc2ccccc2c1 [CBK106527]	92.5%
Cn1c(=O)c2c(ncn2CC(=O)Nc2ccccc2I)n(C)c1=O [CBK133275]	95.6%
Cc1nccn1CC1(O)CCN(C(=O)C2(c3ccccc3)CC2)CC1 [CBK284659]	94.6%
CC1(O)CCN(Cc2nnnn2-c2ccc(S(C)(=O)=O)cc2)CC1 [CBK304166]	99.2%
COc1cc(NC(=O)c2cc3nc(-c4cccs4)cc(C(F)(F)Cl)n3n2)c(C(C)=O)cc1OC [CBK268312]	100%
C=CCN1CCc2cc(-c3cncn3CC(=O)NC(C)(C)C)ccc21 [CBK281923]	86.7%
COc1ccc(CN2Cc3cccc(C(=O)O)c3C2=O)cc1OC [CBK291237]	83.5%
COC(=O)Nc1ccc2c(c1)N(C(=O)CCN1CCN3CCCC3C1)c1ccccc1CC2 (stereo not shown) [CBK278220C]	93.1%
COc1ccc(CCC(=O)N2CCCC2c2cc(Nc3nccs3)cc(C)n2)cc1 (stereo not shown) [CBK285939]	90%
COc1ccc([C@@]23CC[C@@H](NC(=O)c4cc(F)c(Cl)cc4Cl)C[C@@H]2N(C)CC3)cc1OC [CBK074264T]	97.4%

Structure (SMILES)	viability at 28.5 h, 10 µM
CC1=C(C)CC(C(=O)NC(C)CCc2ccccc2)C(C(=O)O)C1 (stereo not shown) [CBK265452]	99.9%
CCCSc1cc(=O)oc2ccccc12 [CBK017493]	87.3%
CCOc1c(CNCCN2CCOCC2)cccc1OC [CBK278182C]	103%
CN(C)C(=O)CN1N=C(C(C)(C)C)Cn2c(cc3ccccc32)C1=O [CBK284210]	81.8%
c1c2c(cc3sc(N4CCOCC4)nc13)OCO2 [CBK287494]	97.7%
Cc1ncsc1C(=O)N1CCCCC1c1nc2ccccc2[nH]1 (stereo not shown) [CBK283531]	95.9%
COc1cc(NC(=O)Cn2cnc3c2c(=O)n(C)c(=O)n3C)c(OC)cc1Cl [CBK133231]	99.2%
O=[N+]([O-])c1cnc(NS(=O)(=O)c2cccc(C(F)(F)F)c2)s1 [CBK067533]	104%
CCOC(=O)CN(Cc1ccccc1)S(=O)(=O)c1ccc(C(C)C)cc1 [CBK043404]	103%
O=C(NC1CCCC1)C1CCCN1c1nc(O)cc(C(F)(F)F)n1 (stereo not shown) [CBK003927]	83.5%
Cc1cc2c(cc1NC(=O)[C@@H]1C[C@@H]3C=C[C@H]1C3)n(C)c(=O)n2C [CBK281689]	106%
CCN(CC)Cn1nc(Nc2ccccc2)n(-c2ccccc2)c1=S [CBK261672]	87.6%
Cc1ccc(CNC(=O)OCc2cccnc2C)o1 [CBK200131]	99%
O=C(CN1C(=O)c2ccccc2C1=O)N1CCN(Cc2ccc3c(c2)OCO3)CC1 [CBK074846]	97.3%
CN1C[C@]2(CC[C@@H](C(=O)N3CCCC3)CC2)Oc2ccccc2C1=O [CBK284886]	103%
COc1ccccc1NC(=O)c1[nH]nc(O)c1Cc1c(Cl)cccc1Cl [CBK107846]	90.2%
O=C(O)CCC(=O)Nc1ccc(-c2nc3cc(C(=O)c4ccccc4)ccc3[nH]2)cc1 [CBK267401]	100%
Cc1cc(C)c(OCCNC(=O)c2ccccc2Sc2ccccc2C#N)c(C)c1 [CBK266048]	97.7%
O=C(NCCCn1ccnc1)C1CCN(C(=O)c2cccc(Cl)c2)CC1 [CBK307596]	116%
Oc1ccc(-c2n[nH]c(C(F)(F)F)c2Oc2ccc(F)cc2)c(O)c1 [CBK264440]	89.5%
Cc1ccc(Cc2cnc(NC(=O)CN3CSCC3=O)s2)cc1Cl [CBK305001]	82%
CC(C)c1ccc(S(=O)(=O)NCCC#N)cc1 [CBK044722]	105%

Structure (SMILES)	viability at 28.5 h, 10 µM
COc1cc(NC(=O)CC2(CC(=O)O)CCCCC2)ccc1N1CCCC1=O [CBK296637]	105%
CC1CCN(S(=O)(=O)N2CCNCC2)CC1 [CBK269836C]	91.5%
O=c1[nH]c2ccc(S(=O)(=O)Nc3ccc(-c4ccccc4)cc3)cc2[nH]1 [CBK266999]	99.8%
COc1ccc2c(c1)cc(C(=O)N(C)CCCn1nc(C)cc1C)n2C [CBK307196]	81.4%
CCOc1ccc(C2=NN(C(=O)CCC(=O)O)C(c3ccc4nccnc4c3)C2)cc1 (stereo not shown) [CBK296703]	103%
CC(C)(C)OC(=O)N1CCN(c2ccccc2O)CC1 [CBK003878]	94.5%
O=C(C1CC2C=CC1C21CC1)N1CCC(Oc2cccnc2)CC1 (stereo not shown) [CBK281501]	101%
COc1ccc(CNc2nc[nH]n2)c(OC)c1OC [CBK288129]	103%
CC(=O)NC1(c2ccc(F)cc2)CCN(Cc2cccnc2)CC1 [CBK283610]	103%
CCn1c(N2CCC(C(=O)NC(C)C)CC2)nc2ccccc21 [CBK283982]	83.8%
COc1ccccc1NC(=O)CN1CCN(CCC(=O)c2ccc(C(C)C)cc2)CC1 [CBK023925C]	95%
NC[C@H]1CC[C@H](C(=O)NCC2CCCN(Cc3ccccc3)C2)CC1 (stereo partly shown) [CBK282764]	89.6%
Cc1csc(C(Cc2ccsc2)NC(=O)C2CCCO2)n1 (stereo not shown) [CBK285122]	107%
CN(C)CCCNC(=O)c1ccc(/C=N/O)[n+](C)c1 [CBK278284I]	88.8%
O=c1c(-c2ccccc2)c(O)cc(-c2ccccc2)n1Cc1ccccc1 [CBK291188]	115%
Cc1ccc(C)n1C1CC(C)(C)NC(C)(C)C1 [CBK019116]	91.1%
c1coc(CNc2cncc(-c3ccc4c(c3)OCO4)n2)c1 [CBK065930]	101%
O=C(Cc1n[nH]c(=O)[nH]c1=O)N/N=C/c1cccc(Br)c1 [CBK263086]	83%
CCOC(=O)c1[nH]c2ccccc2c1NC(=O)[C@@H]1CCCN1C [CBK160171T]	84.9%
CCCNc1nc(-c2ccc(F)c(F)c2)cn2ccnc12 [CBK066573]	94.8%
Cc1nn(CC(=O)N2CCCC2)c(=O)c2cc3occc3n12 [CBK283621]	84.5%
CC(=O)N1CCC2(C/C=C/C[C@H]3CN(Cc4nccs4)CC[C@H]3NC(=O)CNC2=O)CC1 [CBK292169]	111%

Structure (SMILES)	viability at 28.5 h, 10 µM
FC(F)(F)c1cccc(CN2CCN(CCc3ccccc3)CC2)c1 [CBK126421]	99.7%
O=c1/c(=C/c2cccnc2)sc2n1CN(c1cccc([N+](=O)[O-])c1)CN=2 [CBK264401]	76.9%
COc1ccc(-c2c3c(nc4sc(C#N)c(N)c24)CCCC3)cc1 [CBK270279]	80%
COc1ccc(S(=O)(=O)N(C)CC(=O)Nc2ccccc2C(F)(F)F)cc1OC [CBK266159]	106%
Cn1c(C(=O)NCc2ccccc2)cc2ccccc21 [CBK200195]	81.7%
CC(C)CC(NC(=O)Cc1cccc(O)c1)c1ncnn1C (stereo not shown) [CBK307050]	105%
O=S(=O)(c1ccc(F)cc1F)n1ccc2c(N3CCNCC3)nccc21 [CBK059061C]	89.7%
CN1CCCN(c2cncc(-c3ccc4c(c3)OCO4)n2)CC1 [CBK065978]	91.7%
Cc1cccc(C(=O)NCc2nnc(SCC(=O)N3CCOCC3)n2C)c1 [CBK269723]	95.3%
CN(C)S(=O)(=O)Nc1ccc(-c2nnn[nH]2)cc1 [CBK156312]	96.2%
Cc1cc(Cl)ccc1OCC(=O)NC(=S)Nc1cccc(-c2nc3ccccc3s2)c1 [CBK264802]	105%
Cc1ccc(S(=O)(=O)NCCNc2ccc(Cl)cc2[N+](=O)[O-])cc1 [CBK263784]	104%
Cc1csc(Sc2nc3ccccc3nc2C(F)(F)F)n1 [CBK093775]	94.9%
Cc1ccc(S(=O)(=O)NCC(Oc2ccc([N+](=O)[O-])cc2)c2ccccc2)cc1 (stereo not shown) [CBK262208]	101%
Cc1ccc(C(C)C)c(OCC(=O)Nc2ccc(F)c([N+](=O)[O-])c2)c1 [CBK263771]	91.7%
CCNC(=O)C1(Cc2ccccc2-c2ccccc2C)CCN(C(=O)c2ccccc2)CC1 [CBK285716]	96.6%
CC(=O)Nc1ccc(S(=O)(=O)Nc2cc(C)c(-n3nc4ccccc4n3)cc2O)cc1 [CBK268382]	81.2%
O=C(CCCC1CCNCC1)Nc1nnc(C2CC2)s1 [CBK169224]	97.1%
COc1ccc(S(=O)(=O)N2Cc3ccccc3CC2C(=O)Nc2sc3c(c2C#N)CCCC3)cc1 (stereo not shown) [CBK266363]	116%
Cn1c(C(O)c2ccccc2)n[nH]c1=S (stereo not shown) [CBK012984]	117%
COC(=O)c1c(NC(=O)C(=O)NCc2ccccn2)sc2c1CCC2 [CBK269431]	94.6%
CSCCN(C)c1nc2c(c(=O)[nH]1)Cc1ccccc1OC2 [CBK307523]	100%
